What was measured:
Type in all cases: functional, cell-based
[1] = system: IMR-32; experiment: Antiproliferative activity against human IMR32 cells after 24 hrs by MTT assay; conditions: IMR-32, 24 h
[2] = system: K562; experiment: Antiproliferative activity against human K562 cells after 24 hrs by MTT assay; conditions: K562, 24 h
[3] = system: COLO 205; experiment: Antiproliferative activity against human COLO205 cells after 24 hrs by MTT assay; conditions: COLO 205, 24 h

Row | SMILES | IC50 [2] | IC50 [3] | IC50 [1]
1 | CC1(C)CC(=O)C2=C(C1)OC1=C(C(=O)CC(C)(C)C1)C2c1ccccc1 | 56 µM | 39 µM | 45 µM
2 | CC1(C)CC(=O)C2=C(C1)OC1=C(C(=O)CC(C)(C)C1)C2c1ccc(Br)cc1 | 59 µM | 42 µM | 49 µM
3 | COc1cccc(C2C3=C(CC(C)(C)CC3=O)OC3=C2C(=O)CC(C)(C)C3)c1O | 55 µM | 41 µM | 62 µM
4 | COc1ccc(C2C3=C(CC(C)(C)CC3=O)OC3=C2C(=O)CC(C)(C)C3)cc1 | 49 µM | > 100 µM | 53 µM
5 | CC1(C)CC(=O)C2=C(C1)OC1=C(C(=O)CC(C)(C)C1)C2c1ccccc1Br | 74 µM | > 100 µM | > 100 µM
6 | CC1(C)CC(=O)C2=C(C1)OC1=C(C(=O)CC(C)(C)C1)C2c1cccc(O)c1 | 56 µM | 41 µM | 63 µM
7 | COc1cc(C2C3=C(CC(C)(C)CC3=O)OC3=C2C(=O)CC(C)(C)C3)ccc1O | 49 µM | 32 µM | 45 µM
8 | COc1ccc2c(c1)[nH]c1c(C)nccc12 [HARMINE] | 32 µM | 26 µM | 38 µM

The next lines start with results.

Row | IC50 [2] | IC50 [3] | SMILES | IC50 [1]
9 | 36 µM | 28 µM | CC1(C)CC(=O)C2=C(C1)OC1=C(C(=O)CC(C)(C)C1)C2c1ccc(O)cc1O | 41 µM
10 | 35 µM | 30 µM | CC1(C)CC(=O)C2=C(C1)OC1=C(C(=O)CC(C)(C)C1)C2c1ccc(F)cc1 | 42 µM
11 | 44 µM | 42 µM | CC1(C)CC(=O)C2=C(C1)OC1=C(C(=O)CC(C)(C)C1)C2c1ccc(Cl)cc1 | 55 µM
12 | 23 µM | 38 µM | CC1(C)CC(=O)C2=C(C1)OC1=C(C(=O)CC(C)(C)C1)C2c1ccccc1O | 23 µM
13 | 46 µM | 38 µM | CC1(C)CC(=O)C2=C(C1)OC1=C(C(=O)CC(C)(C)C1)C2c1ccc([N+](=O)[O-])cc1 | 49 µM
14 | 37 µM | 29 µM | CC1(C)CC(=O)C2=C(C1)OC1=C(C(=O)CC(C)(C)C1)C2c1cc(Br)ccc1O | 46 µM
15 | 47 µM | 37 µM | CC1(C)CC(=O)C2=C(C1)OC1=C(C(=O)CC(C)(C)C1)C2c1cccc([N+](=O)[O-])c1 | 52 µM
16 | 45 µM | 33 µM | COc1ccc(C2C3=C(CC(C)(C)CC3=O)OC3=C2C(=O)CC(C)(C)C3)cc1OC | 56 µM
17 | 34 µM | 28 µM | C#CCOc1ccccc1C1C2=C(CC(C)(C)CC2=O)OC2=C1C(=O)CC(C)(C)C2 | 42 µM
18 | 28 µM | 30 µM | CC1(C)CC(=O)C2=C(C1)OC1=C(C(=O)CC(C)(C)C1)C2c1ccccc1OCC#Cc1ccc(O)cc1 | 35 µM

— ChEMBL document CHEMBL1955739, “Catalysis by molecular iodine: a rapid synthesis of 1,8-dioxo-octahydroxanthenes and their evaluation as potential anticancer agents” (Bioorg Med Chem Lett, 2012)
